According to ChEMBL document CHEMBL3352529 (J Med Chem, 2014):

What was measured:
[1] = target: T1, Neuraminidase (Influenza A virus, UniProt A5Z252); assay: Inhibition of Influenza A virus A/chicken/china/1220/2012(H5N1) Neuraminidase N1
[2] = target: T2, Neuraminidase (Influenza A virus, UniProt B4URF0); set-up: species or system A/chicken/china/415/2013(H9N2)
[3] = target: T1, Neuraminidase; assay: Binding affinity to Influenza A virus H5N1 Neuraminidase N1
[4] = target: T2, Neuraminidase; assay: Binding affinity to Influenza A virus A/Paris/2590/2009 H1N1 Neuraminidase N1
[5] = target: T1, Neuraminidase; assay: Binding affinity to Influenza A virus H3N2 Neuraminidase N1
[6] = target: T1, Neuraminidase; assay: Inhibition of Influenza A virus H1N1 Neuraminidase N1
[7] = target: T1, Neuraminidase; assay: Inhibition of Influenza A virus H3N2 Neuraminidase N1

T2 sequence (B4URF0 whole entry): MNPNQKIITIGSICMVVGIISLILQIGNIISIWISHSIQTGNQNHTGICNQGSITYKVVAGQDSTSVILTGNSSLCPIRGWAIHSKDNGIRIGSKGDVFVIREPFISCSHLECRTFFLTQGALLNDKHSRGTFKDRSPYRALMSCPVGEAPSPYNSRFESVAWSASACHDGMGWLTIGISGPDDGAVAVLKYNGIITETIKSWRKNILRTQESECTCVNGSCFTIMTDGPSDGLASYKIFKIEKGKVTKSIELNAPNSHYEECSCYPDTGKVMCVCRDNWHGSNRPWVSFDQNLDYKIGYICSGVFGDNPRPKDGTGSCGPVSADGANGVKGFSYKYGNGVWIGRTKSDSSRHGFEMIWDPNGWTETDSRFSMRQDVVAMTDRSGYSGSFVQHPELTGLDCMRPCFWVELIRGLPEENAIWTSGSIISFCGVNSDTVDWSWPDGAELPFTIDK

Row | Structure (SMILES) | IC50 [1] [nM] | IC50 [2] [nM] | other results
1 | CCC(CC)O[C@@H]1C=C(C(=O)O)C[C@H](N(Cc2ccccc2)C(=N)N)[C@H]1NC(C)=O | 1170 | 2600 | –
2 | CCC(CC)O[C@@H]1C=C(C(=O)NO)C[C@H](NC(=N)N)[C@H]1NC(C)=O | > 100 | 200 | –
3 | CCC(CC)O[C@@H]1C=C(C(=O)NO)C[C@H](N)[C@H]1NC(C)=O | > 100 | 110 | –
4 | CCC(CC)O[C@@H]1C=C(C(=O)O)C[C@H](N(Cc2cccs2)C(=N)N)[C@H]1NC(C)=O | 200 | 210 | –
5 | CCC(CC)O[C@@H]1C=C(C(=O)O)C[C@H](N(Cc2ccc(C(C)C)cc2)C(=N)N)[C@H]1NC(C)=O | 1440 | 2370 | –
6 | CCC(CC)O[C@@H]1C=C(C(=O)O)C[C@H](N(Cc2ccccc2OC)C(=N)N)[C@H]1NC(C)=O | 550 | 490 | –
7 | CCC(CC)O[C@@H]1C=C(C(=O)O)C[C@H](N(Cc2ccc(-c3ccccc3)cc2)C(=N)N)[C@H]1NC(C)=O | 150 | 470 | –
8 | CCCN(C(=N)N)[C@H]1CC(C(=O)O)=C[C@@H](OC(CC)CC)[C@@H]1NC(C)=O | 670 | > 5000 | –
9 | CCC(CC)O[C@@H]1C=C(C(=O)O)C[C@H](N(CC(C)C)C(=N)N)[C@H]1NC(C)=O | 230 | > 5000 | –
10 | CCCCCN(C(=N)N)[C@H]1CC(C(=O)O)=C[C@@H](OC(CC)CC)[C@@H]1NC(C)=O | 780 | > 5000 | –
11 | CCCCN(C(=N)N)[C@H]1CC(C(=O)O)=C[C@@H](OC(CC)CC)[C@@H]1NC(C)=O | 1140 | 1480 | –
12 | CCC(CC)O[C@@H]1C=C(C(=O)O)C[C@H](N(CCC(C)C)C(=N)N)[C@H]1NC(C)=O | 370 | > 5000 | –
13 | CCC(CC)CN(C(=N)N)[C@H]1CC(C(=O)O)=C[C@@H](OC(CC)CC)[C@@H]1NC(C)=O | 950 | > 5000 | –
14 | CCC(CC)O[C@@H]1C=C(C(=O)O)C[C@H](N(CCCc2ccccc2)C(=N)N)[C@H]1NC(C)=O | 790 | > 5000 | –
15 | CCC(CC)CN[C@H]1CC(C(=O)O)=C[C@@H](OC(CC)CC)[C@@H]1NC(C)=O | 27 | 300 | –
16 | CCCCN[C@H]1CC(C(=O)O)=C[C@@H](OC(CC)CC)[C@@H]1NC(C)=O | 19 | 2280 | –
17 | CCC(CC)O[C@@H]1C=C(C(=O)O)C[C@H](NCC(C)C)[C@H]1NC(C)=O | 78 | > 5000 | –
18 | CCC(CC)O[C@@H]1C=C(C(=O)O)C[C@H](NCc2cccs2)[C@H]1NC(C)=O | 15 | 740 | –

Row | Structure (SMILES) | IC50 [1] [nM] | IC50 [2] [nM] | other results
19 | CCC(CC)O[C@@H]1C=C(C(=O)O)C[C@H](NCc2ccccc2)[C@H]1NC(C)=O | 7.1 | 2440 | –
20 | CCC(CC)O[C@@H]1C=C(C(=O)O)C[C@H](NCc2ccccc2OC)[C@H]1NC(C)=O | 31 | 1640 | –
21 | CCC(CC)O[C@@H]1C=C(C(=O)O)C[C@H](NCc2ccccc2O)[C@H]1NC(C)=O | 21 | > 5000 | –
22 | CCC(CC)O[C@@H]1C=C(C(=O)O)C[C@H](NCc2ccccc2Cl)[C@H]1NC(C)=O | 3.6 | 980 | –
23 | CCC(CC)O[C@@H]1C=C(C(=O)O)C[C@H](NCc2ccccc2Br)[C@H]1NC(C)=O | 13 | 1150 | –
24 | CCC(CC)O[C@@H]1C=C(C(=O)O)C[C@H](NCc2ccccc2F)[C@H]1NC(C)=O | 10 | 2720 | –
25 | CCC(CC)O[C@@H]1C=C(C(=O)O)C[C@H](NC/C=C/c2ccccc2)[C@H]1NC(C)=O | 14 | 4020 | –
26 | CCC(CC)O[C@@H]1C=C(C(=O)O)C[C@H](NCc2ccc(-c3ccccc3)cc2)[C@H]1NC(C)=O | 1.9 | 1200 | –
27 | CCC(CC)O[C@@H]1C=C(C(=O)O)C[C@H](NCCCc2ccccc2)[C@H]1NC(C)=O | 32 | > 5000 | –
28 | CCC(CC)O[C@@H]1C=C(C(=O)O)C[C@H](NCCCN)[C@H]1NC(C)=O | > 100 | 950 | –
29 | CCC(CC)O[C@@H]1C=C(C(=O)O)C[C@H](NCc2ccccc2OCc2ccco2)[C@H]1NC(C)=O | 59 | 1530 | –
30 | C=CCOc1ccccc1CN[C@H]1CC(C(=O)O)=C[C@@H](OC(CC)CC)[C@@H]1NC(C)=O | 90 | 4700 | –
31 | CCC(CC)O[C@@H]1C=C(C(=O)O)C[C@H](NCc2ccc(-c3ccccc3)cc2Cl)[C@H]1NC(C)=O | 11 | 2020 | –
32 | CCC(CC)O[C@@H]1C=C(C(=O)O)C[C@H](NCc2ccc(-c3ccccc3)cc2-c2ccccc2)[C@H]1NC(C)=O | 43 | 3.2 | –
33 | CCC(CC)O[C@@H]1C=C(C(=O)O)C[C@H](NCc2ccc(-c3cccs3)cc2)[C@H]1NC(C)=O | 2.1 | 3520 | –
34 | CC(=O)N[C@H]1C([C@H](O)[C@H](O)CO)OC(C(=O)O)=C(C/C=C/c2ccc(C)cc2)[C@@H]1O (stereo partly drawn) | – | – | Ki [3]: 7300 nM; Ki [4]: 1700 nM; Ki [5]: 219000 nM
35 | CC(=O)N[C@H]1[C@H]([C@H](O)[C@H](O)CO)OC(C(=O)O)=C[C@@H]1NC(=N)NC(=O)CSc1cccc2ccccc12 | – | – | IC50 [6]: 21 nM; IC50 [7]: 25 nM
36 | CCC(CC)O[C@@H]1C=C(C(=O)O)C[C@H](NC(=N)N)[C@H]1NC(C)=O | 6.9 | 6.4 | –
